Values after ≈ are worked out from the molar mass of the structure shown.

One test concerns C. perfringens. Description: microbe, parasite or virus in culture. It is filed as cell-based. The settings on record: Clostridium perfringens, read-out: minimum inhibitory concentration.
Test [1] concerns pathogenic Clostridium sp. The settings on record: cited from earlier work.

For the compound `Cc1ncc([N+](=O)[O-])n1CCO` [metronidazole], in the test on C. perfringens, the MIC worked out at 25 µg/mL (≈ 146 µM). As to ruminococcin A, the “activity against pathogenic Clostridium sp.” value in test [1] is on record as “active”.

The values above are taken from patent US8697636B2 (priority 2007, dated 2014).
